Tests used:
[1] = test system: enzymes produced by S. aureus MN8; assay: Breakdown of test compounds by enzymes produced by S. aureus MN8, GC/MS of culture fluid; format: in vitro ADME; conditions: concentrations of b130; for course of the concentration of the dominant compound over time: GC/MS at 3, 6, 9 and 24 hours; for dominant compound found in the culture fluid: GC/MS, undiluted solutions at 3, 6, 9 and 24 hours
Procedure: (§1) The test compounds, in the desired concentrations, were placed in 100 mL of a growth medium in a sterile, 500 mL Corning Fleaker (Fisher Scientific, Pittsbury, Pa.). The growth medium and inoculum were prepared as in Example 1.
(§2) The test compounds were added to the growth medium in the amount necessary to obtain the desired final concentration.
(§3) Each fleaker was inoculated with the amount of inoculum determined as described above. The fleakers were capped with sterile aluminum foil and incubated at 35° C. in atmospheric air in a Lab-Line orbital water bath (available from VWR Scientific Products, McGaw Park, Ill.) at 180 rpm. Fifteen milliliter samples were removed at 3, 6, 9, and 24 hours. The optical density (595 nm) of the culture fluid was determined and the culture fluid collected at 24 hours was assayed for the number of colony forming units of S. aureus MN8 using standard plate count procedures.
In preparation for analysis of the integrity of the test compounds, the culture fluid was centrifuged at 3000 rpm at 2-10° C. for 15 minutes. The supernatant was filter sterilized through an AUTOVIAL 5 syringeless filter, […] pore size (available from Whatman, Inc., Clifton, N.J.). The resulting fluid was frozen at −70° C. in a FISHERBRAND (12 mm×75 mm) polystyrene culture tube (Fisher Scientific, Pittsburgh, Pa.) until chemical analysis could be performed.
Using an Agilent Technologies 5973N GC/MS, analysis was performed on undiluted solutions at 3, 6, 9, and 24 hours to evaluate the ability of S. aureus MN8 to breakdown the test compounds. Based on the analysis, the control sample, which had no test compounds added, comprised mostly acetic acid at all time intervals.

[2] = test system: enzymes produced by S. aureus MN8; assay: Breakdown of test compounds by S. aureus MN8, liquid chromatography of culture fluid; format: in vitro ADME; conditions: 6 hour and 24 hour samples, UV 230 nm
Procedure: as §1, §2, §3
In preparation for analysis of the integrity of the test compounds, the culture fluid was centrifuged at 3000 rpm at 2-10° C. for 15 minutes. […]
Additional analysis of the 6 hour and 24 hour samples was conducted by liquid chromatography. […] The dilutions were then analyzed using an ion exclusion column to achieve the separation. Detection of the compounds was accomplished through UV absorbance at 230 nm.

| SMILES | course of the concentration of the dominant compound over time [1] | dominant compound found in the culture fluid [1] | breakdown to the active species [2] |
| --- | --- | --- | --- |
| O=C(O)c1ccccc1 [benzoic acid] | decreased over time | benzoic acid |  |
| OCc1ccccc1 [Benzyl alcohol, benzyl alcohol] | decreased over time | benzyl alcohol |  |
| CC(C)CC(NC(=O)c1ccccc1)C(=O)O (racemic) [N-benzoyl-DL-leucine, N-Benzoyl-DL-Leucine] | decreasing concentration over time | benzoic acid | breakdown to benzoic acid |

Reference: US20060067991A1 (priority 2004, published 2006)
